We go through one molecule from patent US8193238B2, “Inhibition of microtubule protrusion in cancer cells” (University of Maryland, Baltimore, priority 2006, dated 2012).

In one test the test system is EpH4 cells. The experiment in a line: Protrusions in suspended cells treated with cytoskeletal inhibitors (EpH4). It counts as cell-based, mouse. As for the experimental part: (§1) In FIG. 2A, after 15 minutes of suspension, protrusions in EpH4 and MCF10A cells are quite small (Control, white arrows). […] In FIG. 2B, populations of live, suspended cells were scored blindly for two or more protrusions longer than the cell radius. Each bar represents the mean+S.D. for three experiments in which at least 100 single cells were counted.
EpH4 cells were suspended in either DMEM (Control) or media containing 5 μM Latrunculin-A (LA), 1 μM Colchicine or the combination of both drugs for 30 minutes. Cells were then spun onto glass coverslips and fluorescently stained for α-tubulin (green) and polymerized actin (red). Protrusions that are difficult to see by phase contrast are easily discernible with immunostaining for α-tubulin (white arrows). Protrusions contain little polymerized actin, except at points of concentration, which are often at the end (arrowhead).
EpH4 and B19 cells were suspended over 2% agarose coated plates to prevent attachment in either serum-free DMEM or media containing. Latrunculin-A (5 μM) to enhance protrusions. For co-staining of α-tubulin and actin, suspended cells were then centrifuged onto poly-L-lysine coated coverslips (280 g×5 min), fixed in 3.7% formaldehyde in PBS for 10 min, and permeablized with 0.1% Triton X-100 in PBS. Adhered cells were then stained for 1 hr at room temperature using FITC-conjugated anti-α-tubulin (1:200; Sigma), Alexa-594 phalloidin (1:100; Molecular Probes), and Hoescht 33342 (1:5000; Sigma).
(§2) In order to initially characterize the cytoskeletal mechanism underlying these protrusions, suspended cells were treated with inhibitors of actin and tubulin polymerization (FIG. 2). After 15 minutes of suspension, the protrusions in untreated EpH4 or MCF10A cells remain fairly short (FIG. 2, white arrows). These early protrusions can often be difficult to detect with phase-contrast microscopy, due to interfering light refraction from the plasma membrane. […] Protrusions were more easily visible with immunofluorescence than phase contrast microscopy (FIG. 3, white arrows). Although actin filament staining was generally low along the length of the protrusion, dense points of actin were often found at the end of protrusions (FIG. 3, arrowheads).

Test [1] concerns detached mammary epithelial cells. In words: Protrusions of detached mammary epithelial cells, general statements. The test is classed as cell-based, human and mouse. The protocol:
Time-lapse video microscopy of detached mammary epithelial cells detected the extension of long, dynamic protrusions of the plasma membrane, and the present inventors have characterized the cytoskeletal mechanism underlying this novel observation. […] This response may be relatively short-lived, in specific embodiments, since mammary epithelial cells die by apoptosis within about 24 hours in suspension. However, cell lines that resist apoptosis through expression of either Bcl-2 or Bcl-xL will persistently form protrusions. Previous studies by the inventors indicate that such apoptotically-resistant cell lines will not form tumors in mice and lie dormant in distant tissues, in specific embodiments of the invention. […] These microtubule processes can extend more than 3 times the cell diameter, and undergo a rapid probing motion more than once per second. Formation of these microtubule protrusions is necessary for efficient cell-cell and cell-substratum attachment. In particular embodiments of the invention, this inherent microtubule response in detached mammary epithelial cells provides at least some of the invasive characteristics of breast cancer, independent of any tumor-specific genetic alteration, for example.
Breast tumor cells enter the bloodstream long before the development of clinically evident metastasis. However, the early presence of such bloodborne cells predicts poor patient outcome. Nearly 90% of human breast tumors arise as carcinomas from mammary epithelial cells, so it is important to characterize how these cells respond to the detached conditions that they would experience in the bloodstream. In the present invention, mammary epithelial cell lines produce long and dynamic protrusions of the plasma membrane when detached. Although human and mouse mammary epithelial cell lines die by apoptosis within 16 hours of detachment, this protrusive response persists for days in cells overexpressing either Bcl-2 or Bcl-xL, for example. […] Since bloodborne metastasis depends on both cell-cell and cell-matrix attachment, microtubule-based protrusions in detached mammary epithelial cells provide a novel target that could influence the metastatic spread of breast tumors.
Detachment-induced increases in Glu-tubulin could promote plasma membrane protrusions of microtubules by preventing efficient capture at the actin cortex. […] Therefore, our current model is that detachment increases stabilized microtubules enriched in Glu-tubulin, while decreased actin polymerization simply promotes extension of these microtubule protrusions.

The subject of another test is EpH4-Bcl2 cells. In words: Cell-cell attachment assay. The test is classed as cell-based, mouse. The settings on record: EpH4-Bcl2 in 0.3% methylcellulose over agarose, 5 hours; listed as LA. The protocol:
In FIG. 6A, EpH4-Bcl2 cells were suspended over agarose and treated with inhibitors as above. Following treatment, cells were plated into 0.3% methylcellulose media over agarose and the rate of cell-cell attachment was followed by Hoescht DNA staining. […] Similar results were found in three independent experiments. In FIG. 6B, EpH4-Bcl2 cells suspended over agarose for one hour in DMEM or DMEM containing LA (5 μM), Colchicine (1 μM), or the combination. Reattachment of these cells to either uncoated tissue culture plates or those pre-coated with laminin was followed by XTT cell viability assay. Values represent mean+S.D. of raw XTT values of three separate experiments.
B19 cells were seeded onto 10 cm dishes until 80% confluency. The media was aspirated and cells were incubated in fresh growth media containing Hoescht 33342 (1:5000) for 30 min at 37° C. to label all attached cells. The cells were washed twice in PBS, detached by trypsinization, and an equivalent number of cells were resuspended in serum-free media containing 0.3% methylcellulose with either 5 μM Latrunculin A, 100 μM Colchicine, 1 μg/ml vinblastine, or 5 μg/ml nocodazole and plated over 2% agarose-coated 24-well plates. The progression of cell-cell adhesion over time was visualized by the EpiChemi3 Imaging System (UVP, Inc.; Upland, Calif.) using an excitation wavelength of 365 nm and a blue band pass filter. Images were obtained with an attached Hamamatsu CCD camera (Hamamatsu Photonics, Hamamatsu City, Japan) and analyzed with UVP Labworks Image Acquisition and Analysis Software v. 4.6.
To determine if these microtubule protrusions influence the ability of cells to form attachments, the cells were treated with inhibitors of actin or tubulin polymerization and assessed both cell-cell and cell-substratum attachment (FIG. 6). […] Induction of such nonspecific attachment activity in detached mammary epithelial cells could promote tumor cell dissemination, particularly when apoptotic resistance allows this response to continue for extended periods.

In the next test the test system is MCF10A cells. The experiment in a line: Protrusions in suspended cells treated with cytoskeletal inhibitors (MCF10A). It counts as cell-based, human. Details: protrusions counted with phase-contrast microscopy: dose or concentration left out as unconfirmed. The protocol: as §1, §2
The nontumorigenic human mammary epithelial cell line (MCF10A) or the indicated human breast tumor cell lines were grown in suspension for 30-60 minutes, and protrusions were counted in random fields with phase-contrast microscopy. Values represent the mean±S.D. of three experiments in which at least 100 cells were counted. […] This effect was most apparent in the highly metastatic but exemplary Bt-474 and MDA-MB-231 cells (pictured, black arrows). The exemplary MCF10A cells show far fewer and shorter protrusions at the same time point (pictured, white arrows). Such protrusions are not observed in attached cells.

Entries after “also recorded” stand apart in the source; their conditions may differ.

With `C/C1=C/C(=O)O[C@@H]2C[C@@H](CC[C@H](C)/C=C\C=C\CC1)O[C@@](O)([C@@H]1CSC(=O)N1)C2` [Latrunculin-A], the protrusions entry in the test on EpH4 cells (EpH4, 15 minutes of suspension, Latrunculin-A 5 μM, Colchicine 1 μM, listed as latrunculin-A) is “significantly enhanced both the number and length of protrusions”; in test [1], “enhanced; also recorded: promotes the extension of microtubule protrusions”; in the test on MCF10A cells (MCF10A, 15 minutes of suspension, Latrunculin-A 5 μM, Colchicine 1 μM, listed as latrunculin-A), “significantly enhanced both the number and length of protrusions”. In addition, in the test with EpH4 cells (EpH4 suspended 30 minutes, LA 5 μM, listed as LA), the “microtubule protrusions by immunofluorescence (α-tubulin)” value is “increase the number and length of microtubule protrusions; also recorded: strongly enhances the formation of microtubule protrusions”. For the same molecule, in the test with EpH4-Bcl2 cells, the “cell-cell attachment (clustering)” value is given as “did speed the rate at which cells bound to each other; also recorded: cluster similarly or even more tightly compared to control cells”. Besides, the “protrusions counted with phase-contrast microscopy” value in the test with MCF10A cells (MCF10A in suspension 30-60 minutes, LA) is given as “increases protrusions”.
